PMC11448502, “Cryo-EM structures of the human P2X1 receptor reveal subtype-specific architecture and antagonism by supramolecular ligand-binding” (Nature Communications, 2024)
Positions count from the first letter of the chain named. Several values for one entry are separate records, joined by “and”; a condition that tells them apart may be missing. Identical values can stand only once. Entries after “also recorded” stand apart in the source; their conditions may differ. Like-named read-outs stand apart in the source and are kept apart here.

Assays:
hP2X1 D170A = target: T1, hP2X1 D170A (Homo sapiens, UniProt P51575, D170A); assay: ATP dose response (EC50), TEVC in oocytes; assay type: cell-based; settings: for Normalized Current: hP2X1 D170A
T1 construct: hP2X1 mRNA that was made from linearized full-length wild-type or mutant pcDNA 3.1x; expressed in transfected cells; host or cells: Xenopus laevis oocytes (mRNA injection)
T1 sequence (P51575 1-399 D170A): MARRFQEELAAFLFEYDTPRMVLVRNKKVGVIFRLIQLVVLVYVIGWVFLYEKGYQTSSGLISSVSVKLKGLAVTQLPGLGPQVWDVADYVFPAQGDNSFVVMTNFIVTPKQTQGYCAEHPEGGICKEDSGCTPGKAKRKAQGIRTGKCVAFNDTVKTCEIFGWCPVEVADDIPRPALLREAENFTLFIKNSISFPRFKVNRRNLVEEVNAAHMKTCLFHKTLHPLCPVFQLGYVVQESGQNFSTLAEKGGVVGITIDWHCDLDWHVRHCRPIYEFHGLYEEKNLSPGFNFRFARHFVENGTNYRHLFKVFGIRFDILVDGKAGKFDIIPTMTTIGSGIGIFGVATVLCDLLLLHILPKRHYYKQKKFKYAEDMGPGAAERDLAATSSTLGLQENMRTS
Method: (§1) Oocytes were purchased defolliculated from Ecocyte Bioscience in Barth’s Solution (88 mM NaCl, 1 mM KCl, 0.82 mM MgSO4, 0.33 mM Ca(NO3)2, 0.41 mM CaCl2, 2.4 mM NaHCO3, 5 mM Tris-HCl) supplemented with penicillin (100 U/mL) and streptomycin (100 µg/mL). Xenopus laevis oocytes were then injected with 50 nL of 100 ng/μL hP2X1 mRNA that was made from linearized full-length wild-type or mutant pcDNA 3.1x according to the protocol provided in the mMessage mMachine kit (Invitrogen). Injected oocytes were allowed to express for ~20 hours at 18 °C before recording was performed.
(§2) Data acquisition was performed using the Oocyte Clamp OC-725C amplifier and pClamp 8.2 software. Buffers were applied using a gravity fed RSC-200 Rapid Solution Changer that flows at ~5 mL/min. All experiments use Sutter filamented glass 10 cm in length with an inner diameter of 0.69 mm and an outer diameter of 1.2 mm to impale oocytes and clamp the holding voltage at −60 mV. Experiments were recorded in buffer containing 10 mM HEPES (pH 7.4), 140 mM NaCl, 5 mM KCl, 2 mM CaCl2, 2 mM MgCl2, and 10 mM glucose.
(§3) Excitatory responses to a dilution series of ATP between 6.4 nM and 10 mM were examined across the different mutants. Each evoked response was normalized to an initial ATP-induced current evoked by the following concentrations: 500 µM ATP for R292A, 2 mM ATP for K309A, and 100 µM ATP for the remaining mutants and wild-type receptor. The data was fit in Prism 9 using the nonlinear regression named “EC50, x is concentration” to afford EC50 values. This value was then averaged amongst each singular condition and reported as an average plus or minus the standard deviation.

hP2X1 K140A = target: T2, hP2X1 K140A (Homo sapiens, UniProt P51575, K140A); assay: ATP dose response (EC50), TEVC in oocytes; assay type: cell-based; settings: for Normalized Current: hP2X1 K140A
T2 construct: hP2X1 mRNA that was made from linearized full-length wild-type or mutant pcDNA 3.1x; expressed in transfected cells; host or cells: Xenopus laevis oocytes (mRNA injection)
T2 sequence (P51575 1-399 K140A): T1 sequence (P51575 1-399 D170A) with K140A, A170D
Method: as §1, §2, §3

hP2X1 R139A = target: T3, hP2X1 R139A (Homo sapiens, UniProt P51575, R139A); assay: ATP dose response (EC50), TEVC in oocytes; assay type: cell-based
T3 construct: hP2X1 mRNA that was made from linearized full-length wild-type or mutant pcDNA 3.1x; expressed in transfected cells; host or cells: Xenopus laevis oocytes (mRNA injection)
T3 sequence (P51575 1-399 R139A): T1 sequence (P51575 1-399 D170A) with R139A, A170D
Method: as §1, §2, §3

hP2X1 R292A = target: T4, hP2X1 R292A (Homo sapiens, UniProt P51575, R292A); assay: ATP dose response (EC50), TEVC in oocytes; assay type: cell-based
T4 construct: hP2X1 mRNA that was made from linearized full-length wild-type or mutant pcDNA 3.1x; expressed in transfected cells; host or cells: Xenopus laevis oocytes (mRNA injection)
T4 sequence (P51575 1-399 R292A): T1 sequence (P51575 1-399 D170A) with A170D, R292A
Method: as §1, §2, §3

P2X7 receptor = target: P2X7 receptor; parameters: method as in PMID 33125712, PMID 18657557; settings: read-out: apparent affinity for ATP, cited from earlier work

Compound: Nc1ncnc2c1ncn2[C@@H]1O[C@H](COP(=O)(O)OP(=O)(O)OP(=O)(O)O)[C@@H](O)[C@H]1O [ATP]
- apparent affinity (EC50) of ATP, effect of mutation (hP2X1 D170A; hP2X1 D170A vs wild-type, TEVC): do not appear to significantly change; also recorded: no major effect; also recorded: does not significantly impact
- Normalized Current (hP2X1 D170A; [ATP] 1.000E-04 M): 0.9915 and 0.8795 and 0.8416
- Normalized Current (hP2X1 D170A; [ATP] 2.000E-05 M): 0.8809 and 0.7486 and 0.74
- Normalized Current (hP2X1 D170A; [ATP] 3.200E-08 M): 0.000000
- Normalized Current (hP2X1 D170A; [ATP] 4.000E-06 M): 0.723 and 0.5398 and 0.4488
- Normalized Current (hP2X1 D170A; [ATP] 5.000E-04 M): 1.029 and 1.009 and 0.9611
- apparent affinity (EC50) of ATP, effect of mutation (hP2X1 K140A; hP2X1 K140A vs wild-type, TEVC): do not appear to significantly change; also recorded: no major effect; also recorded: did not impact
- Normalized Current (hP2X1 K140A; [ATP] 1.000E-04 M): 1.047 and 0.9489 and 0.9169
- Normalized Current (hP2X1 K140A; [ATP] 4.000E-06 M): 0.661 and 0.6317 and 0.5508
- Normalized Current (hP2X1 K140A; [ATP] 5.000E-04 M): 1.045 and 0.9875 and 0.9677
- EC50 of ATP (hP2X1 R139A; TEVC): no effect; also recorded: without affecting
- Normalized Current (hP2X1 R139A; [ATP] 1.000E-04 M): 0.9464 and 0.9017 and 0.9178
- Normalized Current (hP2X1 R139A; [ATP] 2.000E-05 M): 0.8825 and 0.6805 and 0.736
- Normalized Current (hP2X1 R139A; [ATP] 4.000E-06 M): 0.6603 and 0.5057 and 0.6077
- Normalized Current (hP2X1 R139A; [ATP] 5.000E-04 M): 1.062 and 0.93 and 1.008
- EC50 of ATP (hP2X1 R292A; TEVC): impacted
- Normalized Current (hP2X1 R292A; [ATP] 1.000E-04 M): 0.772 and 0.7521 and 0.7236
- Normalized Current (hP2X1 R292A; [ATP] 1.600E-07 M): 0.000000
- Normalized Current (hP2X1 R292A; [ATP] 2.000E-05 M): 0.2643 and 0.1768 and 0.1722
- Normalized Current (hP2X1 R292A; [ATP] 2.500E-03 M): 1.04 and 1.022 and 0.9381
- Normalized Current (hP2X1 R292A; [ATP] 5.000E-04 M): 0.9697 and 0.8815 and 0.878
- EC50 (P2X7 receptor): > 100 µM
- EC50 (P2X7 receptor; under certain conditions): > 1000 µM
